In patent US8273754B2, “Substituted 1H-pyrazolo[3,4-D]pyrimidine-6-amine compounds” (ArQule, Inc., priority 2008, dated 2012):
Read-outs that look alike come from different tables or passages of the source.

System: cancer cells
Assay: MTS cell growth inhibition assay (72 hours)
Assay type: cell-based
Method in brief: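 Growth inhibition read as formazan absorbance at 492 nm after 4 h MTS/PMS, following 72 h compound exposure at 37 °C in 1% FBS DMEM (cells pre-seeded 18 h). IC50 = 50% absorbance reduction; inhibition graded in bands.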

[1] = Homo sapiens, DLD-1, 72 h, DLD-1 cells, read-out: DLD-1 MTS 72 hr at 10 μM
[2] = Homo sapiens, KATO III, 72 h, KATO III cells, read-out: KATO III MTS 72 hr at 10 μM
[3] = Homo sapiens, MDA-MB-231, 72 h, MDA-MB-231 cells, read-out: MDA-MB-231 MTS 72 hr at 10 μM
[4] = Homo sapiens, NCI-H1299, 72 h, NCI-H1299 cells, read-out: NCI-H1299 MTS 72 hr at 10 μM
[5] = PaCa-2, 72 h, PACA-2 cells, read-out: PACA-2 MTS 72 hr at 10 μM

SMILES	inhibition at 10 µM [1]	inhibition at 10 µM [2]	inhibition at 10 µM [3]	inhibition at 10 µM [4]	inhibition at 10 µM [5]
Nc1nc(NC2Cc3ccccc3N(S(=O)(=O)c3ccc(NC(=O)Nc4ccccc4)cc3)C2)c2cn[nH]c2n1 (centres unmarked) [Compound 225, 1-(4-(3-(6-amino-1H-pyrazolo[3,4-d]pyrimidin-4-ylamino)-3,4-dihydroquinolin-1(2H)-ylsulfonyl)phenyl)-3-phenylurea]	> 79%	> 79%	> 79%	> 79%	> 79%
Nc1nc(NC2Cc3ccccc3N(C(=O)COc3cccc(Cl)c3)C2)c2cn[nH]c2n1 (centres unmarked) [Compound 93, 1-(3-(6-amino-1H-pyrazolo[3,4-d]pyrimidin-4-ylamino)-3,4-dihydroquinolin-1(2H)-yl)-2-(3-chlorophenoxy)ethanone]	< 50%	< 50%	< 50%	< 50%	< 50%
N#Cc1cccc(CN2CC(Nc3nc(N)nc4[nH]ncc34)Cc3ccccc32)c1 (centres unmarked) [Compound 145, 3-({3-[(6-amino-1H-pyrazolo[3,4-d]pyrimidin-4-yl)amino]-3,4-dihydroquinolin-1(2H)-yl}methyl)benzonitrile]	> 79%	> 79%	> 79%	> 79%	> 79%
Nc1nc(NC2Cc3ccccc3N(C(=O)C3CCCCC3)C2)c2cn[nH]c2n1 (centres unmarked) [Compound 84, (3-(6-amino-1H-pyrazolo[3,4-d]pyrimidin-4-ylamino)-3,4-dihydroquinolin-1(2H)-yl)(cyclohexyl)methanone]	< 50%	< 50%	< 50%	< 50%	< 50%
CC1(C)CCc2cc(CN3CC(Nc4nc(N)nc5[nH]ncc45)Cc4ccccc43)ccc2O1 (centres unmarked) [Compound 147, N4-{1-[(2,2-dimethyl-3,4-dihydro-2H-chromen-6-yl)methyl]-1,2,3,4-tetrahydroquinolin-3-yl}-1H-pyrazolo[3,4-d]pyrimidine-4,6-diamine]	> 79%	> 79%	50 to 79%	< 50%	> 79%
COc1cccc(S(=O)(=O)N2CC(Nc3nc(N)nc4[nH]ncc34)Cc3ccccc32)c1 (centres unmarked) [Compound 24, N4-(1-(3-methoxyphenylsulfonyl)-1,2,3,4-tetrahydroquinolin-3-yl)-1H-pyrazolo[3,4-d]pyrimidine-4,6-diamine]	< 50%	> 79%	< 50%	< 50%	< 50%
CS(=O)(=O)N1CC(Nc2nc(N)nc3[nH]ncc23)Cc2ccccc21 (centres unmarked) [Compound 29, N4-(1-(methylsulfonyl)-1,2,3,4-tetrahydroquinolin-3-yl)-1H-pyrazolo[3,4-d]pyrimidine-4,6-diamine]	< 50%	< 50%	< 50%	< 50%	< 50%
Nc1nc(NC2CCN(S(=O)(=O)c3ccc(F)c(Cl)c3)c3ccccc3C2)c2cn[nH]c2n1 (centres unmarked) [Compound 181, N4-{1-[(3-chloro-4-fluorophenyl)sulfonyl]-2,3,4,5-tetrahydro-1H-1-benzazepin-4-yl}-1H-pyrazolo[3,4-d]pyrimidine-4,6-diamine]	< 50%	< 50%	< 50%	< 50%	50 to 79%
COc1cccc(S(=O)(=O)N2CCC(Nc3nc(N)nc4[nH]ncc34)Cc3ccccc32)c1 (centres unmarked) [Compound 175, N4-{1-[(3-methoxyphenyl)sulfonyl]-2,3,4,5-tetrahydro-1H-1-benzazepin-4-yl}-1H-pyrazolo[3,4-d]pyrimidine-4,6-diamine]	< 50%	< 50%	< 50%	< 50%	< 50%
Nc1nc(NC2Cc3ccccc3N(S(=O)(=O)c3cccc(Cl)c3F)C2)c2cn[nH]c2n1 (centres unmarked) [Compound 78, N4-(1-(3-chloro-2-fluorophenylsulfonyl)-1,2,3,4-tetrahydroquinolin-3-yl)-1H-pyrazolo[3,4-d]pyrimidine-4,6-diamine]	< 50%	< 50%	< 50%	< 50%	< 50%
Nc1nc(NC2Cc3ccccc3N(C(=O)C(=O)c3c[nH]c4ccccc34)C2)c2cn[nH]c2n1 (centres unmarked) [Compound 83, 1-(3-(6-amino-1H-pyrazolo[3,4-d]pyrimidin-4-ylamino)-3,4-dihydroquinolin-1(2H)-yl)-2-(1H-indol-3-yl)ethane-1,2-dione]	< 50%	< 50%	< 50%	< 50%	< 50%
COc1cc(CN2CC(Nc3nc(N)nc4[nH]ncc34)Cc3ccccc32)ccc1OCc1ccccc1 (centres unmarked) [Compound 156, N4-{1-[4-(benzyloxy)-3-methoxybenzyl]-1,2,3,4-tetrahydroquinolin-3-yl}-1H-pyrazolo[3,4-d]pyrimidine-4,6-diamine]	50 to 79%	< 50%	< 50%	< 50%	< 50%
COc1cc(F)ccc1CN1CC(Nc2nc(N)nc3[nH]ncc23)Cc2ccccc21 (centres unmarked) [Compound 141, N4-[1-(4-fluoro-2-methoxybenzyl)-1,2,3,4-tetrahydroquinolin-3-yl]-1H-pyrazolo[3,4-d]pyrimidine-4,6-diamine]	> 79%	> 79%	> 79%	> 79%	> 79%
Nc1nc(NC2Cc3ccccc3N(S(=O)(=O)c3cc(Cl)cc(Cl)c3)C2)c2cn[nH]c2n1 (centres unmarked) [Compound 36, N4-(1-(3,5-dichlorophenylsulfonyl)-1,2,3,4-tetrahydroquinolin-3-yl)-1H-pyrazolo[3,4-d]pyrimidine-4,6-diamine]	< 50%	50 to 79%	< 50%	< 50%	< 50%
Nc1nc(NC2Cc3ccccc3N(Cc3cccc(Oc4ccc(Cl)cc4)c3)C2)c2cn[nH]c2n1 (centres unmarked) [Compound 164, N4-{1-[3-(4-chlorophenoxy)benzyl]-1,2,3,4-tetrahydroquinolin-3-yl}-1H-pyrazolo[3,4-d]pyrimidine-4,6-diamine]	50 to 79%	50 to 79%	< 50%	< 50%	< 50%
COc1ccc(-n2ncc(CN3CC(Nc4nc(N)nc5[nH]ncc45)Cc4ccccc43)c2C)cc1 (centres unmarked) [Compound 157, N4-(1-{[1-(4-methoxyphenyl)-5-methyl-1H-pyrazol-4-yl]methyl}-1,2,3,4-tetrahydroquinolin-3-yl)-1H-pyrazolo[3,4-d]pyrimidine-4,6-diamine]	< 50%	50 to 79%	< 50%	< 50%	< 50%
Nc1nc(NC2Cc3ccccc3N(Cc3ccc(OCc4ccccc4)cc3)C2)c2cn[nH]c2n1 (centres unmarked) [Compound 155, N4-{1-[4-(benzyloxy)benzyl]-1,2,3,4-tetrahydroquinolin-3-yl}-1H-pyrazolo[3,4-d]pyrimidine-4,6-diamine]	> 79%	> 79%	> 79%	> 79%	> 79%
Nc1nc(NC2Cc3ccccc3N(S(=O)(=O)c3cccc(NC(=O)Nc4ccc(F)c(F)c4)c3)C2)c2cn[nH]c2n1 (centres unmarked) [Compound 207, 1-[3-({3-[(6-amino-1H-pyrazolo[3,4-d]pyrimidin-4-yl)amino]-3,4-dihydroquinolin-1(2H)-yl}sulfonyl)phenyl]-3-(3,4-difluorophenyl)urea]	> 79%	> 79%	> 79%	> 79%	> 79%
Cc1ccc(CN2CC(Nc3nc(N)nc4[nH]ncc34)Cc3ccccc32)cc1C (centres unmarked) [Compound 130, N4-[1-(3,4-dimethylbenzyl)-1,2,3,4-tetrahydroquinolin-3-yl]-1H-pyrazolo[3,4-d]pyrimidine-4,6-diamine]	< 50%	< 50%	< 50%	< 50%	< 50%
Cc1cccc(NC(=O)Nc2ccc(S(=O)(=O)N3CC(Nc4nc(N)nc5[nH]ncc45)Cc4ccccc43)cc2)c1 (centres unmarked) [Compound 195, 1-[4-({3-[(6-amino-1H-pyrazolo[3,4-d]pyrimidin-4-yl)amino]-3,4-dihydroquinolin-1(2H)-yl}sulfonyl)phenyl]-3-(3-methylphenyl)urea]	> 79%	> 79%	> 79%	< 50%	> 79%
COc1ccc(CN2CC(Nc3nc(N)nc4[nH]ncc34)Cc3ccccc32)cc1OC1CCCC1 (centres unmarked) [Compound 162, N4-{1-[3-(cyclopentyloxy)-4-methoxybenzyl]-1,2,3,4-tetrahydroquinolin-3-yl}-1H-pyrazolo[3,4-d]pyrimidine-4,6-diamine]	< 50%	< 50%	< 50%	< 50%	< 50%
Nc1nc(NC2Cc3ccccc3N(S(=O)(=O)c3cccc(NC(=O)Nc4cccc(Cl)c4Cl)c3)C2)c2cn[nH]c2n1 (centres unmarked) [Compound 211, 1-[3-({3-[(6-amino-1H-pyrazolo[3,4-d]pyrimidin-4-yl)amino]-3,4-dihydroquinolin-1(2H)-yl}sulfonyl)phenyl]-3-(2,3-dichlorophenyl)urea]	> 79%	> 79%	> 79%	> 79%	> 79%
